Activity calls are given as the source filed them.
Experiments:
Type in all cases: functional, cell-based
MDA-MB-435 = assay: Growth inhibition of human MDA-MB-435 cells at 10 uM by sulforhodamine B assay
UACC-62 = assay: Growth inhibition of human UACC62 cells at 10 uM by sulforhodamine B assay
SW-620 = assay: Growth inhibition of human SW620 cells at 10 uM by sulforhodamine B assay
MCF7 = assay: Growth inhibition of human MCF7 cells at 10 uM by sulforhodamine B assay
IGROV-1 = assay: Growth inhibition of human IGROV1 cells at 10 uM by sulforhodamine B assay
SK-MEL-2 = assay: Growth inhibition of human SK-MEL-2 cells at 10 uM by sulforhodamine B assay
DU-145 = assay: Growth inhibition of human DU145 cells at 10 uM by sulforhodamine B assay
SF-539 = assay: Growth inhibition of human SF539 cells at 10 uM by sulforhodamine B assay
SR = assay: Growth inhibition of human SR cells at 10 uM by sulforhodamine B assay
COLO 205 = assay: Growth inhibition of human COLO205 cells at 10 uM by sulforhodamine B assay
MDA-MB-231 = assay: Growth inhibition of human MDA-MB-231 cells at 10 uM by sulforhodamine B assay
OVCAR-8 = assay: Growth inhibition of human OVCAR8 cells at 10 uM by sulforhodamine B assay
HL-60(TB) = assay: Growth inhibition of human HL-60(TB) cells at 10 uM by sulforhodamine B assay
SK-MEL-5 = assay: Growth inhibition of human SK-MEL-5 cells at 10 uM by sulforhodamine B assay
A549 = assay: Growth inhibition of human A549/ATCC cells at 10 uM by sulforhodamine B assay
SN12C = assay: Growth inhibition of human SN12C cells at 10 uM by sulforhodamine B assay
Hs-578T = assay: Growth inhibition of human Hs 578T cells at 10 uM by sulforhodamine B assay
NCI-H460 = assay: Growth inhibition of human NCI-H460 cells at 10 uM by sulforhodamine B assay
OVCAR-3 = assay: Growth inhibition of human OVCAR3 cells at 10 uM by sulforhodamine B assay
SNB-19 = assay: Growth inhibition of human SNB19 cells at 10 uM by sulforhodamine B assay
Malme-3M = assay: Growth inhibition of human MALME-3M cells at 10 uM by sulforhodamine B assay
T47D = assay: Growth inhibition of human T47D cells at 10 uM by sulforhodamine B assay
SF-295 = assay: Growth inhibition of human SF295 cells at 10 uM by sulforhodamine B assay
CCRF-CEM = assay: Growth inhibition of human CCRF-CEM cells at 10 uM by sulforhodamine B assay
OVCAR-4 = assay: Growth inhibition of human OVCAR4 cells at 10 uM by sulforhodamine B assay
TK-10 = assay: Growth inhibition of human TK10 cells at 10 uM by sulforhodamine B assay
RXF 393 = assay: Growth inhibition of human RXF393 cells at 10 uM by sulforhodamine B assay
PC-3 = assay: Growth inhibition of human PC3 cells at 10 uM by sulforhodamine B assay
HCT-116 = assay: Growth inhibition of human HCT116 cells at 10 uM by sulforhodamine B assay
K562 = assay: Growth inhibition of human K562 cells at 10 uM by sulforhodamine B assay
HOP-92 = assay: Growth inhibition of human HOP92 cells at 10 uM by sulforhodamine B assay
HOP-62 = assay: Growth inhibition of human HOP62 cells at 10 uM by sulforhodamine B assay
NCI/ADR-RES = assay: Growth inhibition of human NCI/ADR-RES cells at 10 uM by sulforhodamine B assay
OVCAR-5 = assay: Growth inhibition of human OVCAR5 cells at 10 uM by sulforhodamine B assay
SK-MEL-28 = assay: Growth inhibition of human SK-MEL-28 cells at 10 uM by sulforhodamine B assay
HCC 2998 = assay: Growth inhibition of human HCC2998 cells at 10 uM by sulforhodamine B assay
NCI-H322M = assay: Growth inhibition of human NCI-H322M cells at 10 uM by sulforhodamine B assay
ACHN = assay: Growth inhibition of human ACHN cells at 10 uM by sulforhodamine B assay
SK-OV-3 = assay: Growth inhibition of human SKOV3 cells at 10 uM by sulforhodamine B assay
786-0 = assay: Growth inhibition of human 786-0 cells at 10 uM by sulforhodamine B assay
NCI-H522 = assay: Growth inhibition of human NCI-H522 cells at 10 uM by sulforhodamine B assay
A498 = assay: Growth inhibition of human A498 cells at 10 uM by sulforhodamine B assay
KM12 = assay: Growth inhibition of human KM12 cells at 10 uM by sulforhodamine B assay
CAKI-1 = assay: Growth inhibition of human Caki1 cells at 10 uM by sulforhodamine B assay
MDA-MB-468 = assay: Growth inhibition of human MDA-MB-468 cells at 10 uM by sulforhodamine B assay
NCI-H226 = assay: Growth inhibition of human NCI-H226 cells at 10 uM by sulforhodamine B assay
SF-268 = assay: Growth inhibition of human SF268 cells at 10 uM by sulforhodamine B assay
UACC-257 = assay: Growth inhibition of human UACC257 cells at 10 uM by sulforhodamine B assay
U-251 = assay: Growth inhibition of human U251 cells at 10 uM by sulforhodamine B assay
NCI-H23 = assay: Growth inhibition of human NCI-H23 cells at 10 uM by sulforhodamine B assay
HT-29 = assay: Growth inhibition of human HT-29 cells at 10 uM by sulforhodamine B assay
UO-31 = assay: Growth inhibition of human UO31 cells at 10 uM by sulforhodamine B assay
BT-549 = assay: Growth inhibition of human BT549 cells at 10 uM by sulforhodamine B assay
SNB-75 = assay: Growth inhibition of human SNB75 cells at 10 uM by sulforhodamine B assay
M14 = assay: Growth inhibition of human M14 cells at 10 uM by sulforhodamine B assay
MOLT-4 = assay: Growth inhibition of human MOLT4 cells at 10 uM by sulforhodamine B assay
LOX IMVI = assay: Growth inhibition of human LOXIMVI cells at 10 uM by sulforhodamine B assay
HCT-15 = assay: Growth inhibition of human HCT15 cells at 10 uM by sulforhodamine B assay
RPMI-8226 = assay: Growth inhibition of human RPMI8226 cells at 10 uM by sulforhodamine B assay

Measured: growth inhibition (GI)

COc1cc(-c2nc(-c3ccccc3)c(-c3ccccc3)n2Cc2ccccc2)ccc1OC1CCCCC1
active: MDA-MB-435 | UACC-62 | SW-620 | MCF7 | IGROV-1 | SK-MEL-2 | DU-145 | SF-539 | SR | COLO 205 | MDA-MB-231 | OVCAR-8 | HL-60(TB) | SK-MEL-5 | A549 | SN12C | Hs-578T | NCI-H460 | OVCAR-3 | SNB-19 | Malme-3M | T47D | SF-295 | CCRF-CEM | OVCAR-4 | TK-10 | RXF 393 | PC-3 | HCT-116 | K562 | HOP-92 | HOP-62 | NCI/ADR-RES | OVCAR-5 | SK-MEL-28 | HCC 2998 | NCI-H322M | ACHN | SK-OV-3 | 786-0 | NCI-H522 | A498 | KM12 | CAKI-1 | MDA-MB-468 | NCI-H226 | SF-268 | UACC-257 | U-251 | NCI-H23 | HT-29 | UO-31 | BT-549 | SNB-75 | M14 | MOLT-4 | LOX IMVI | HCT-15 | RPMI-8226

COc1ccc(-c2nc(-c3ccccc3)c(-c3ccccc3)n2C2CC2)cc1OC1CCCC1
active: MDA-MB-435 | UACC-62 | SW-620 | MCF7 | IGROV-1 | SK-MEL-2 | DU-145 | SF-539 | SR | COLO 205 | MDA-MB-231 | OVCAR-8 | HL-60(TB) | SK-MEL-5 | A549 | SN12C | Hs-578T | NCI-H460 | OVCAR-3 | SNB-19 | Malme-3M | T47D | SF-295 | CCRF-CEM | OVCAR-4 | TK-10 | RXF 393 | PC-3 | HCT-116 | K562 | HOP-92 | HOP-62 | NCI/ADR-RES | OVCAR-5 | SK-MEL-28 | HCC 2998 | NCI-H322M | ACHN | SK-OV-3 | 786-0 | NCI-H522 | A498 | KM12 | CAKI-1 | MDA-MB-468 | NCI-H226 | SF-268 | UACC-257 | U-251 | NCI-H23 | HT-29 | UO-31 | BT-549 | SNB-75 | M14 | MOLT-4 | LOX IMVI | HCT-15 | RPMI-8226
